pEC50, pIC50: −log10 of the molar value.
Assays:
[1] = target: Replicase polyprotein 1ab (Severe acute respiratory syndrome coronavirus 2, UniProt P0DTD1); assay: Inhibition of SARS CoV-2 main protease preincubated for 30 min followed by substrate addition and measured after 60 mins by fluorescence assay
Human coronavirus OC43 [2] = assay: microbe, parasite or virus in culture; settings: Betacoronavirus 1, MRC5, 120 h
[3] = Cmax in rat at 10 mg/kg, po; assay type: ADME, organism-based; set-up: route po; settings: in vivo
[4] = Stability of compound in mouse plasma assessed as compound remaining and measured after 2 hrs; assay type: ADME, cell-free
[5] = Volume of distribution at steady state in mouse at 3 mg/kg, iv; assay type: ADME, organism-based; settings: in vivo, read-out: Vdss
[6] = AUC in rat at 10 mg/kg, po; assay type: ADME, organism-based; set-up: dose 10 mg/kg, route po; settings: in vivo
[7] = Volume of distribution at steady state in rat at 2 mg/kg, iv; assay type: ADME, organism-based; settings: in vivo, read-out: Vdss
[8] = Half life in mouse 3 mg/kg, iv; assay type: ADME, organism-based; settings: in vivo
[9] = Cmax in mouse at 10 mg/kg, po; assay type: ADME, organism-based; set-up: route po; settings: in vivo
[10] = Clearance in mouse at 3 mg/kg, iv; assay type: ADME, organism-based; settings: in vivo
SARS-CoV-2 = assay: microbe, parasite or virus in culture; settings: Severe acute respiratory syndrome coronavirus 2, Vero, 24 h
[11] = Clearance in rat at 2 mg/kg, iv; assay type: ADME, organism-based; settings: in vivo
[12] = Oral bioavailability in rat at 10 mg/kg; assay type: ADME, organism-based; settings: in vivo
[13] = Oral bioavailability in mouse at 10 mg/kg; assay type: ADME, organism-based; settings: in vivo
[14] = Stability of compound in human plasma assessed as compound remaining and measured after 2 hrs; assay type: ADME, cell-free
[15] = AUC in mouse at 10 mg/kg, po; assay type: ADME, organism-based; set-up: route po; settings: in vivo
[16] = Half life in rat 2 mg/kg, iv; assay type: ADME, organism-based; settings: in vivo
[17] = Stability of compound in rat plasma assessed as compound remaining and measured after 2 hrs; assay type: ADME, cell-free
[18] = Toxicity in mouse infected with HCoV-OC43 assessed as body weight change at 12.5 to 50 mg/kg, ip for 7 days; assay type: organism-based; settings: in vivo, 168 h, dose 12.5-50 mg/kg, time 7 day
Human coronavirus OC43 [19] = assay: In vivo antiviral activity against HCoV-OC43 infected in mouse assessed as organism survival rate at 12.5 mg/kg,ip for 7 days; assay type: functional; settings: time 7 day
Human coronavirus OC43 [20] = assay: In vivo antiviral activity against HCoV-OC43 infected in mouse assessed as organism survival rate at 25 mg/kg,ip for 7 days; assay type: functional; settings: time 7 day
Human coronavirus OC43 [21] = assay: In vivo antiviral activity against HCoV-OC43 infected in mouse assessed as organism survival rate at 50 mg/kg,ip for 7 days; assay type: functional; settings: time 7 day
Human coronavirus OC43 [22] = assay: In vivo antiviral activity against HCoV-OC43 infected in mouse assessed as organism survival rate at 12.5 to 50 mg/kg,ip for 7 days; assay type: functional, organism-based; settings: dose 12.5-50 mg/kg, time 7.0 day

| SMILES | pIC50 [1] | pEC50 (Human coronavirus OC43 [2]) | Cmax [3] | Stability [4] | Vd [5] | AUC [6] | Vd [7] | half-life [8] | Cmax [9] | clearance [10] | pEC50 (SARS-CoV-2) | clearance [11] | bioavailability [12] | bioavailability [13] | Stability [14] | AUC [15] | half-life [16] | Stability [17] | also measured |
| --- | --- | --- | --- | --- | --- | --- | --- | --- | --- | --- | --- | --- | --- | --- | --- | --- | --- | --- | --- |
| N#C[C@H](C[C@@H]1CCNC1=O)NC(=O)[C@@H]1[C@H]2CCC[C@H]2CN1C(=O)[C@@H](NC(=O)C(F)(F)F)c1ccc(F)cc1 | 6.78 | 6.17 |  |  |  |  |  |  |  |  |  |  |  |  |  |  |  |  |  |
| CC(C)(C)[C@H](NC(=O)C(F)(F)F)C(=O)N1C[C@@H]2C[C@@H]2[C@H]1C(=O)N[C@H](C#N)C[C@@H]1CCNC1=O | 6.45 | 5.24 |  |  |  |  |  |  |  |  |  |  |  |  |  |  |  |  |  |
| N#C[C@H](C[C@@H]1CCNC1=O)NC(=O)[C@@H]1[C@H]2CCC[C@H]2CN1C(=O)[C@@H](NC(=O)C(F)(F)F)C1CCCCC1 | 7.33 | 6.95 | 3470 nM | 100% | 1.01 L/kg | 2.92 µM·h | 1.34 L/kg | 11.3 min | 1160 nM | 92.2 mL/min/kg | 7.37 | 62.7 mL/min/kg | 57.6% | 14.2% | 108% | 0.478 µM·h | 22.7 min |  |  |
| CC(C)(C)NC(=O)C(=O)[C@H](C[C@@H]1CCNC1=O)NC(=O)[C@@H]1[C@H]2CCC[C@H]2CN1C(=O)[C@@H](NC(=O)C(F)(F)F)C1CC2(CCC2)C1 | 7.11 | 6.35 |  |  |  |  |  |  |  |  |  |  |  |  |  |  |  |  |  |
| CC(C)(C)[C@H](NC(=O)C(F)(F)F)C(=O)N1C[C@@H]2CCC[C@@H]2[C@H]1C(=O)N[C@H](C#N)C[C@@H]1CCNC1=O | 7.37 | 6.87 | 2980 nM | 102% | 0.64 L/kg | 2.31 µM·h | 1.25 L/kg | 6.66 min | 790 nM | 79.3 mL/min/kg | 7.19 | 75.4 mL/min/kg | 52% | 13.3% | 106% | 0.553 µM·h | 14.3 min | 100% |  |
| CC(C)(C)NC(=O)C(=O)[C@H](C[C@@H]1CCNC1=O)NC(=O)[C@@H]1[C@H]2CCC[C@H]2CN1C(=O)[C@@H](NC(=O)C(F)(F)F)C1CCCC1 |  | 6.38 |  |  | 0.911 L/kg |  |  | 196 min | 4800 nM | 5.06 mL/min/kg |  |  |  | 30.8% |  | 16.8 µM·h |  |  |  |
| CC(=O)N[C@H](C(=O)N1C[C@@H]2CCC[C@@H]2[C@H]1C(=O)N[C@H](C#N)C[C@@H]1CCNC1=O)C1CCCCC1 | 6.26 | 5.56 |  |  |  |  |  |  |  |  |  |  |  |  |  |  |  |  |  |
| N#C[C@H](Cc1n[nH]c2ccccc12)NC(=O)[C@@H]1[C@H]2CCC[C@H]2CN1C(=O)[C@@H](NC(=O)C(F)(F)F)C1CCCCC1 | < 6.00 | 5.31 |  |  |  |  |  |  |  |  |  |  |  |  |  |  |  |  |  |
| CC(C)(C)NC(=O)C(=O)[C@H](C[C@@H]1CCNC1=O)NC(=O)[C@@H]1[C@H]2CCC[C@H]2CN1C(=O)[C@@H](NC(=O)C(F)(F)F)C1CCCCC1 | 7.47 | 6.84 | 3790 nM | 106% |  | 37.4 µM·h | 0.929 L/kg |  | 4810 nM |  | 7.28 | 2.55 mL/min/kg | 37.4% | 32% | 102% | 33 µM·h | 262 min | 96% | Activity [18]: Toxic; Activity (Human coronavirus OC43 [19]): 66.6%; Activity (Human coronavirus OC43 [20]): 83.3%; Activity (Human coronavirus OC43 [21]): 100%; Activity (Human coronavirus OC43 [22]): Dose-Dependent Effect |
| CC(C)(C)[C@H](NC(=O)C(F)(F)F)C(=O)N1C[C@H]2[C@@H]([C@H]1C(=O)N[C@H](C#N)C[C@@H]1CCNC1=O)C2(C)C |  |  | 2140 nM | 91% | 0.456 L/kg | 2.38 µM·h | 1.24 L/kg | 42.8 min | 2720 nM | 30.2 mL/min/kg |  | 42 mL/min/kg | 29.9% | 32.7% |  | 3.58 µM·h | 46.2 min | 84% | Activity (Human coronavirus OC43 [21]): 100% |
